The target in this test is IDH2 R140Q (Homo sapiens (Human), UniProt P48735, R140Q). The experiment in a line: IDH2 R140Q enzymatic cofactor depletion assay (diaphorase/resazurin). It counts as biochemical. As to conditions: IDH2 R140Q enzyme, one hour preincubation with compound, one hour reaction; read-out: Enz R140Q. A digest of the protocol:
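Enzyme preincubated with compound 1 h at room temperature, then reaction started with 50 μM NADPH and 6.3 mM α-KG and run 1 h at room temperature. Remaining NADPH measured by diaphorase (36 μg/ml)/resazurin (60 μM) stop mix, fluorescence read at Ex544/Em590 after 1 min.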
Background: Alamar Blue is a resazurin reagent that responds to reducing activity.
IDH2 R140Q, sequence (P48735 40-452 R140Q): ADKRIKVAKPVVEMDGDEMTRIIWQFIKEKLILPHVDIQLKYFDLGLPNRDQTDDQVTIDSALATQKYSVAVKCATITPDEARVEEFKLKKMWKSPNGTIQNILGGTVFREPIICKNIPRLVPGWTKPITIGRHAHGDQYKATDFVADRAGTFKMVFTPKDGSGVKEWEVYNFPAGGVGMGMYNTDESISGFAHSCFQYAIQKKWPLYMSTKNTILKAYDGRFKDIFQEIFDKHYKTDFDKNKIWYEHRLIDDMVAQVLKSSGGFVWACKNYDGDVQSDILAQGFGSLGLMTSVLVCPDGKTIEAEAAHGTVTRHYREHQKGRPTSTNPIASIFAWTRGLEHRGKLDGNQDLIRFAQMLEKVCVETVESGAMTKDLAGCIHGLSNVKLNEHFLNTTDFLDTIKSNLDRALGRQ
As for `CC1(NS(=O)(=O)c2ccc(-c3ccsc3)c(NC(=O)Nc3cccc(C(F)(F)F)c3)c2)CC1` [Compound 151, N-(1-methylcyclopropyl)-4-(thiophen-3-yl)-3-(3-(3-(trifluoromethyl)phenyl)ureido)benzenesulfonamide], the IC50 is 100 to 1000 nM.
For `CC1CC1NS(=O)(=O)c1ccc(-c2ccsc2)c(NC(=O)Nc2cccc(C(F)(F)F)c2)c1` (stereo not shown) [Compound 152, N-(2-methylcyclopropyl)-4-(thiophen-3-yl)-3-(3-(3-(trifluoromethyl)phenyl)ureido)benzenesulfonamide] the value was 100 to 1000 nM.
For `O=C(Nc1ccc(F)cc1)Nc1cc(S(=O)(=O)NCC2CC2)ccc1C1=CCOCC1` [Compound 153] the value was 1000 to 10000 nM; for `O=C(Nc1cccc(C(F)(F)F)c1)Nc1cc(S(=O)(=O)NCC2CC2)ccc1C1=CCOCC1` [Compound 154, N-(cyclopropylmethyl)-4-(3,6-dihydro-2H-pyran-4-yl)-3-(3-(3-(trifluoromethyl)phenyl)ureido)benzene sulfonamide], 100 to 1000 nM.
For `O=C(Nc1ccc(F)c(Cl)c1)Nc1cc(S(=O)(=O)NCC2CC2)ccc1C1=CCOCC1` [Compound 155, 3-(3-(3-chloro-4-fluorophenyl)ureido)-N-(cyclopropylmethyl)-4-(3,6-dihydro-2H-pyran-4-yl)benzene sulfonamide] the value was 100 to 1000 nM; for `O=C(Nc1ccc(F)c(C(F)(F)F)c1)Nc1cc(S(=O)(=O)NCC2CC2)ccc1C1=CCOCC1` [Compound 156, N-(cyclopropylmethyl)-4-(3,6-dihydro-2H-pyran-4-yl)-3-(3-(4-fluoro-3-(trifluoromethyl)phenyl)ureido)benzenesulfonamide], 100 to 1000 nM; for `O=C(Nc1cccc(C(F)(F)F)c1)Nc1cc(S(=O)(=O)NCC(F)(F)F)ccc1C1=CCOCC1` [Compound 157, 4-(3,6-dihydro-2H-pyran-4-yl)-N-(2,2,2-trifluoroethyl)-3-(3-(3-(trifluoromethyl)phenyl)ureido)benzene sulfonamide], 1000 to 10000 nM.
`O=C(Nc1ccc(F)c(Cl)c1)Nc1cc(S(=O)(=O)NCC(F)(F)F)ccc1C1=CCOCC1` [Compound 158, 3-(3-(3-chloro-4-fluorophenyl)ureido)-4-(3,6-dihydro-2H-pyran-4-yl)-N-(2,2,2-trifluoroethyl)benzene sulfonamide]: the IC50 was in the range of 100 to 1000 nM.
For the compound `O=C(Nc1ccc(F)c(C(F)(F)F)c1)Nc1cc(S(=O)(=O)NCC(F)(F)F)ccc1C1=CCOCC1` [Compound 159, 4-(3,6-dihydro-2H-pyran-4-yl)-3-(3-(4-fluoro-3-(trifluoromethyl)phenyl)ureido)-N-(2,2,2-trifluoroethyl)benzenesulfonamide], the IC50 fell in the range of 100 to 1000 nM.
Consider `O=C(Nc1cccc(C(F)(F)F)c1)Nc1cc(S(=O)(=O)Nc2ccccc2)ccc1C1=CCOCC1` [Compound 161, 4-(3,6-dihydro-2H-pyran-4-yl)-N-phenyl-3-(3-(3-(trifluoromethyl)phenyl)ureido)benzene sulfonamide], for which the IC50 is 100 to 1000 nM.
Regarding `O=C(Nc1cccc(C(F)(F)F)c1)Nc1cc(S(=O)(=O)NCC2CC2)ccc1C1CCCCO1` (stereo not shown) [Compound 162, N-(cyclopropylmethyl)-4-(tetrahydro-2H-pyran-2-yl)-3-(3-(3-(trifluoromethyl)phenyl)ureido)benzene sulfonamide], the IC50 was 100 to 1000 nM.
With `O=C(Nc1cccc(Cl)c1)Nc1cc(S(=O)(=O)NCC2CC2)ccc1C1CCCCO1` (stereo not shown) [Compound 163, 3-(3-(3-chlorophenyl)ureido)-N-(cyclopropylmethyl)-4-(tetrahydro-2H-pyran-2-yl)benzenesulfonamide] the figure was 100 to 1000 nM.
Regarding `O=C(Nc1ccc(F)c(C(F)(F)F)c1)Nc1cc(S(=O)(=O)NCC2CC2)ccc1C1CCCCO1` (stereo not shown) [Compound 164, N-(cyclopropylmethyl)-3-(3-(4-fluoro-3-(trifluoromethyl)phenyl)ureido)-4-(tetrahydro-2H-pyran-2-yl)benzenesulfonamide], the IC50 fell in the range of 100 to 1000 nM.
